Literature values, collected in PubChem BioAssay AID1259409 (Chemical Carcinogenesis Research Information System (CCRIS), 2018).

Tested on: rodent chemically induced tumor inhibition, incidence and multiplicity
Assay: CCRIS tumor inhibitor studies

Q: Which “tumour outcome (control, treated, inhibition, significance)” value (Carcinogen: 1,2-DIMETHYLHYDRAZINE DIHYDROCHLORIDE, 306-37-6, Dose [Inhibitor]: 0, 10 MG/KG/D IN 0.2 ML OF 5% SODIUM BICARBONATE FOR 1 WK PRIOR +0 AND 1 WK POST CARCINOGEN DOSE (STUDY DURATION: 36 WK), Route [Inhibitor]: SUBCUTANEOUS, Species: RAT, Strain/Sex: SPRAGUE-DAWLEY/MALE, Target Tissue: Type of Lesion: COLON: ADENOCARCINOMA, Dose [Carcinogen]: 30 MG/KG ONCE, Promoter: NONE USED) does the source give for `CC(=O)Oc1ccccc1C(=O)O` here?
A: 50%, 17%, 66%, p<0.05

Q: And the “tumour outcome (control, treated, inhibition, significance)” value (Carcinogen: 1,2-DIMETHYLHYDRAZINE DIHYDROCHLORIDE, 306-37-6, Dose [Inhibitor]: 0, 50 MG/KG/D IN 0.6 ML OF 5% SODIUM BICARBONATE BEGINNING 4 WK POST CARCINOGEN DOSE AND CONTINUING FOR DURATION OF STUD, Route [Inhibitor]: SUBCUTANEOUS, Species: RAT, Strain/Sex: SPRAGUE-DAWLEY/MALE, Target Tissue: Type of Lesion: COLON: ADENOCARCINOMA, Dose [Carcinogen]: 30 MG/KG ONCE, Promoter: NONE USED)?
A: 42%, 42%, 0%, not significant

Q: And the “tumour outcome (control, treated, inhibition, significance)” value (Carcinogen: 2-AMINO-1-METHYL-6-PHENYLIMIDAZO[4,5-B]PYRIDINE [105650-23-5], Dose [Inhibitor]: 400 PPM IN DIET FOR 4 WK BEGINNING WK PRIOR TO FIRST CARCINOGEN DOSE (STUDY DURATION: 25 WK), Route [Inhibitor]: ORAL, Species: RAT, Strain/Sex: SPRAGUE-DAWLEY/FEMALE, Target Tissue: Type of Lesion: MAMMARY GLAND: FIBROADENOMA OR DUCTAL CARCINOMA, Dose [Carcinogen]: 85 MG/KG BW 2X/WK FOR 4 WK (STUDY DURATION: 25 WK), Promoter: NONE)?
A: 67.7%, 50.0%, 26%, not significant

Q: What about the “tumour outcome (control, treated, inhibition, significance)” value (Carcinogen: 2-AMINO-1-METHYL-6-PHENYLIMIDAZO[4,5-B]PYRIDINE, 105650-23-5, Dose [Inhibitor]: 0, 400 PPM IN HIGH FAT DIET FOR 4 WK BEGINNING 1 WK PRIOR TO CARCINOGEN TREATMENT (STUDY DURATION: 25 WK), Route [Inhibitor]: ORAL, Species: RAT, Strain/Sex: SPRAGUE-DAWLEY/FEMALE, Target Tissue: Type of Lesion: MAMMARY GLAND: CARCINOMA, Dose [Carcinogen]: 85 MG/KG BW IN CORN OIL 8 TIMES IN 10 D, Promoter: NONE USED) of the same molecule?
A: 21/31 (68%), 14/30 (47%), 31%, not significant

Q: What about the “tumour outcome (control, treated, inhibition, significance)” value (Carcinogen: 2-AMINO-1-METHYL-6-PHENYLIMIDAZO[4,5-B]PYRIDINE, 105650-23-5, Dose [Inhibitor]: 0, 400 PPM IN HIGH FAT DIET FOR 4 WK BEGINNING 1 WK PRIOR TO CARCINOGEN TREATMENT (STUDY DURATION: 25 WK), Route [Inhibitor]: ORAL, Species: RAT, Strain/Sex: SPRAGUE-DAWLEY/FEMALE, Target Tissue: Type of Lesion: MAMMARY GLAND: FIBROADENOMA, Dose [Carcinogen]: 85 MG/KG BW IN CORN OIL 8 TIMES IN 10 D, Promoter: NONE USED) of the same molecule?
A: 3/31 (10%), 2/30 (7%), 30%, not significant

Q: And the “tumour outcome (control, treated, inhibition, significance)” value (Carcinogen: 4-(METHYLNITROSAMINO)-1-(3-PYRIDYL)-1-BUTANONE, 64091-91-4, Dose [Inhibitor]: 0, 32 MG/KG BW BUFFERED ASPIRIN IN DIET FOR DURATION OF STUDY BEGINNING 2 WK PRIOR TO CARCINOGEN TREATMENT (STUDY DURATI, Route [Inhibitor]: ORAL, Species: MOUSE, Strain/Sex: STRAIN-A/FEMALE, Target Tissue: Type of Lesion: LUNG: TUMOR, Dose [Carcinogen]: 9.1 MG/MOUSE (TOTAL DOSE) ADMINISTERED IN DRINKING WATER OVER 7 WK, Promoter: NONE USED)?
A: 23/24 (96%), 15/15 (100%), -4%, not significant

Q: And the “tumour outcome (control, treated, inhibition, significance)” value (Carcinogen: 4-(METHYLNITROSAMINO)-1-(3-PYRIDYL)-1-BUTANONE, 64091-91-4, Dose [Inhibitor]: 0, 32 MG/KG BW NON-BUFFERED ASPIRIN IN DIET FOR DURATION OF STUDY BEGINNING 2 WK PRIOR TO CARCINOGEN TREATMENT (STUDY DU, Route [Inhibitor]: ORAL, Species: MOUSE, Strain/Sex: STRAIN-A/FEMALE, Target Tissue: Type of Lesion: LUNG: TUMOR, Dose [Carcinogen]: 9.1 MG/MOUSE (TOTAL DOSE) ADMINISTERED IN DRINKING WATER OVER 7 WK, Promoter: NONE USED)?
A: 23/24 (96%), 14/14 (100%), -4%, not significant

Q: And the “tumour outcome (control, treated, inhibition, significance)” value (Carcinogen: 4-(METHYLNITROSAMINO)-1-(3-PYRIDYL)-1-BUTANONE, 64091-91-4, Dose [Inhibitor]: 0, 35 MG/KG BW IN DIET FOR DURATION OF STUDY BEGINNING 2 WK PRIOR TO CARCINOGEN TREATMENT (STUDY DURATION: 25 WK), Route [Inhibitor]: ORAL, Species: MOUSE, Strain/Sex: STRAIN-A/FEMALE, Target Tissue: Type of Lesion: LUNG: TUMOR, Dose [Carcinogen]: 9.1 MG/MOUSE (TOTAL DOSE) ADMINISTERED IN DRINKING WATER OVER 7 WK, Promoter: NONE USED)?
A: 23/24 (96%), 14/15 (93%), 3%, not significant

Q: And the “tumour outcome (control, treated, inhibition, significance)” value (Carcinogen: 4-(METHYLNITROSAMINO)-1-(3-PYRIDYL)-1-BUTANONE, 64091-91-4, Dose [Inhibitor]: 0, 73 MMOL/KG BW/D IN DIET FOR DURATION OF STUDY BEGINNING 2 WK PRIOR TO CARCINOGEN TREATMENT (STUDY DURATION: 25 WK), Route [Inhibitor]: ORAL, Species: MOUSE, Strain/Sex: STRAIN-A/FEMALE, Target Tissue: Type of Lesion: LUNG: TUMOR, Dose [Carcinogen]: 2.2 MMOL/KG BW (TOTAL DOSE) ADMINISTERED IN DRINKING WATER FOR 7 WK, Promoter: NONE USED)?
A: 29/29 (100%), 25/25 (100%), 0%, not significant
